Test results published in patent publication US6121279A, “Substituted 6-phenylphenanthridines” (Byk Gulden Lomberg Chemische Fabrik GmbH, priority 1997, dated 2000).

System: PDE 4
Experiment: Inhibition of PDE 4 activity (method of Bauer and Schwabe, adapted to microtiter plates)
Type: biochemical
Conditions: Table A

SMILES | inhibitory concentration as -log IC50 (mol/l), Inhibition of PDE 4 activity
CCOc1cc2c(cc1OC)C(c1ccc(C(=O)Nc3cccnc3)cc1)=NC1CCCCC21 (mixture of isomers) [Compound 6, (+/-)-cis-9-Ethoxy-8-methoxy-6-(4-pyrid-3-ylamidophenyl)-1,2,3,4,4a,10b-hexahydrophenanthridine] | 8.66
CCOc1cc2c(cc1OC)C(c1ccc(S(N)(=O)=O)cc1)=N[C@H]1CCCC[C@@H]21 (racemic) [Compound 1, (+-)-cis-9-Ethoxy-8-methoxy-6-(4-sulfamoylphenyl)-1,2,3,4,4a,10b-hexahydrophenanthridine] | 8.55
CCCN(CCC)S(=O)(=O)c1ccc(C2=N[C@H]3CCCC[C@H]3c3cc(OCC)c(OC)cc32)cc1 (racemic) [Compound 2, (+/-)-cis-9-Ethoxy-8-methoxy-6-(4-dipropylsulfamoylphenyl)-1,2,3,4,4a,10b-hexahydrophenanthridine] | 9.25
CCOc1cc2c(cc1OC)C(c1ccc(S(=O)(=O)Nc3ccc(C)cc3)cc1)=N[C@H]1CCCC[C@@H]21 (racemic) [Compound 3, (+/-)-cis-9-Ethoxy-8-methoxy-6-(4-p-tolylsulfamoylphenyl)-1,2,3,4,4a,10b-hexahydrophenanthridine] | 9.24
COc1cc2c(cc1OC)[C@@H]1CCCC[C@@H]1N=C2c1ccc(S(=O)(=O)Nc2ccc(C)cc2)cc1 (single isomer, unassigned) [Compound 5, (-)-cis-8,9-Dimethoxy-6-(4-p-tolylsulfamoylphenyl)-1,2,3,4,4a,10b-hexahydrophenanthridine] | 8.30
